The record followed here is patent US20030232813A1, “Novel amino substituted pyrimidinone derivatives” (ORCHID CHEMICALS & PHARMACEUTICALS LIMITED, priority 2002, published 2003).

Molecules are shown by their SMILES.

The inhibition is the percentage by which the read-out fell short of the control. Higher therefore signals strong suppression. By melting point is commonly meant the temperature of the solid-liquid transition.

Data set [1] relates to IL-6. Put plainly: IL-6 production from LPS-stimulated human monocytes (ELISA). In kind it is cell-based. The conditions noted are these: Monocyte; for inhibition at 1 µM: Conc. 1 μM. The procedure:
This assay determines the effect of test compounds on the production of IL-6 from human monocytes. Compounds are tested for their ability to downregulate the production of IL-6 in activated monocytes. Test compounds were incubated for three, six and twenty four hours with human monocytes. Lipopolysaccharide was used to stimulate the monocytes. The level of Interleukin-6 is quantitated using Enzyme-Linked Immunosorbent assay performed in a 96 well format.

Data set [2] relates to TNF-α. Put plainly: TNF-α production from LPS-stimulated human monocytes (ELISA). The conditions noted are these: Monocyte; for inhibition at 10 µM: Conc. 10 μM. In kind it is cell-based. Here is the method: Tumor Necrosis Factor Alpha (TNF-α)
This assay determines the effect of test compounds on the production of TNF-α from human monocytes. Compounds were tested for their ability to downregulate the production of TNF-α in activated monocytes. Test compounds were incubated for three, six and twenty four hours with human monocytes. Lipopolysaccharide was used to stimulate the monocytes. The level of TNF-α was quantitated using Enzyme-Linked Immunosorbent assay performed in a 96 well format.

The test system of data set [3] is Male Wistar rats. Put plainly: Gastro-ulcerogenic potential (ulcer formation in the rats of the paw edema test). The conditions noted are these: oral dosing. In kind it is in vivo, rat. The procedure: (§1) The carrageenan paw edema test was performed as described by Winter et al (Proc. Soc. Exp Biol Me., 111, 544, 1962). Male Wistar rats were selected and the body weight were equivalent within each group. The rats were fasted for eighteen hours with free access to water. The rats were dosed orally with the test compound suspended in vehicle containing 0.5% Methycellulose. The control rats were administered the vehicle alone. After one hour the rats were injected with 0.1 ml of 1% Carrageenan solution in 0.9% saline into the sub plantar surface of the right hind paw. Paw thickness was measured using vernier calipers at 0 time, after 2 and 3 hours. The average of foot swelling in drug treated animals was compared with that of control animals. Anti-inflammatory activity was expressed as the percentage inhibition of edema compared with control group [Arzneim-Forsch/Drug Res 43(I), 1, 44-50, 1993; Otterness and Bliven, Laboratory Models for Testing NSAIDs, In Non-Steroidal Anti-Inflammatory Drugs, (J. Lombardino, ed. 1985)]. The data of the selected compounds in this invention are summarized in Table I. In order to evaluate their role on the ulcer formation, the animals were sacrificed by cervical dislocation, the stomach removed and flushed with 1% formalin (10 ml). The stomach was opened along the greater curvature. The haemorrhagic puncta and sulci were identified macroscopically.

Data set [4] concerns the target T1, COX-2 (Homo sapiens, UniProt P35354).
T1 construct: Fresh blood was collected in tubes containing potassium EDTA by vein puncture from male volunteers; endogenous in cells; host or cells: fresh human whole blood from male volunteers, aspirin-pretreated, LPS-stimulated for 24 h
T1 sequence (P35354 18-604): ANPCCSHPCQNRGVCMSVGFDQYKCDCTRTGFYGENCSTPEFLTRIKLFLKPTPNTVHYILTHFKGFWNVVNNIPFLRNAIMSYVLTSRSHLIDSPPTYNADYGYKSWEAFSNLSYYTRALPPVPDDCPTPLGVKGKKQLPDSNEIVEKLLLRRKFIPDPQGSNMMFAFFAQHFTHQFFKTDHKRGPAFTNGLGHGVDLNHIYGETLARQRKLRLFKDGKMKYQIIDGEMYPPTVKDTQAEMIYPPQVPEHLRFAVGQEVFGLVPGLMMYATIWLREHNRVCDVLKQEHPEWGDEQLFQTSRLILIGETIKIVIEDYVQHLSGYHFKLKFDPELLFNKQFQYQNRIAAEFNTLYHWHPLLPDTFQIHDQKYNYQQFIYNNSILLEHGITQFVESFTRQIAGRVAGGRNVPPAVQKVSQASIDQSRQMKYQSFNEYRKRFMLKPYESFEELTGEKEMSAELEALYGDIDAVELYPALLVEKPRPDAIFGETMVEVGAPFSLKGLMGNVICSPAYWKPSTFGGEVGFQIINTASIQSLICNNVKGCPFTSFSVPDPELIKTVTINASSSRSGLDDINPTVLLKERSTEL
Nature of the data set: Human whole blood assay, COX-2 inhibition (LPS-induced PGE2). The data set is classed as cell-based. The conditions noted are these: 24 h. Here is the method: In vitro Evaluation of Cycloxygenase-2 (COX-2) Inhibition Activity
The COX-2 inhibition activity of the compounds illustrated in the examples was determined by the following method.
Human whole blood provides a protein and cell rich milieu appropriate for the study of biochemical efficacy of anti-inflammatory compounds such as selective COX-2 inhibitors. […] This is correlating with the observation that COX-2 inhibitors have no effect on prostaglandin E2 (PGE2) production in normal blood. These inhibitors are active only after incubation of human blood with lipopolysaccharide (LPS), which induces COX-2 production in the blood.
Fresh blood was collected in tubes containing potassium EDTA by vein puncture from male volunteers. The subjects should have no apparent inflammatory conditions and not taken NSAIDs for atleast 7 days prior to blood collection. Blood was treated with aspirin in vitro (10 μg/ml, at time zero) to inactivate COX-1, and then with LPS (10 μg/ml) along with test agents or vehicle. The blood was incubated for 24 h at 37° C., after which the tubes were centrifuged, the plasma was separated and stored at −80° C. (J Pharmacol Exp Ther 271, 1705, 1994; Proc Natl Acad Sci USA 96, 7563, 1999). The plasma was assayed for PGE2 using Cayman ELISA kit as per the procedure outlined by the manufacturer (Cayman Chemicals, Ann Arbor, USA). […]

Data set [5] has as its system Male Wistar rats. Put plainly: Rat carrageenan paw edema test. The data set is classed as in vivo. The conditions noted are these: oral. Here is the method:
Rat Carrageenan Paw Edema Test
as §1, with “The haemorrhagic puncta and sulci were identified macroscopically.” left out
On the technique in general: Carrageenan injected into the paw causes an acute inflammation.

`COc1ccc(Nc2nc(=O)cc(N)n2-c2ccccc2)cc1` [Example 2, 6-amino-2-(4-methoxy-phenylamino)-1-phenyl-1H-pyrimidin-4-one]: the melting point fell in the range of 213 to 216 °C. The compound also yielded an inhibition at 1 µM in data set [1] of 65.1%.
Taken in the same sequence, the figures for `Nc1cc(=O)nc(Nc2ccc(Cl)cc2)n1-c1ccccc1` [Example 6, 6-amino-2-(4-chloro-phenylamino)-1-phenyl-1H-pyrimidin-4-one] were 233 to 237 °C and 44.6%.
`Nc1cc(=O)nc(Nc2ccccc2)n1-c1ccc(Br)cc1` [Example 12, 6-amino-1-(4-bromophenyl)-2-phenylamino-1H-pyrimidin-4-one] returned a melting point of 211 to 213 °C.
The compound `CSc1ccc(Nc2nc(=O)cc(N)n2-c2ccccc2)cc1` [Example 4, 6-amino-2-(4-methylthio-phenylamino)-1-phenyl-1H-pyrimidin-4-one] had a melting point of 133 to 135 °C. In addition, 10 µM produced 43.5% inhibition in data set [2]. Further, the inhibition at 1 µM in data set [1] turned out to be 56.7%.
For the compound `Nc1cc(=O)nc(Nc2ccccc2)n1-c1ccccc1` [Example 1, 6-amino-2-phenylamino-1-phenyl-1H-pyrimidin-4-one], the melting point is 202 to 206 °C. Further, in data set [3], the “Gastro-ulcerogenic potential (% incidence of ulceration)” value is 24.6%. Moreover, 10 µM produced 75.8% inhibition in data set [4] (Conc. 10 μM). In data set [5], the “Rat Paw Edema model % Inhibition (10 mg/kg body weight)” value amounted to 10%. In addition, testing at 0.25 µM in data set [1] (Conc. 0.25 μM) gave an inhibition of 46.6%.
With `CSc1ccc(Nc2nc(=O)cc(N)n2-c2ccc(C)cc2)cc1` [Example 8, 6-amino-1-(4-methylphenyl)-2-(4-methylthio-phenylamino)-1H-pyrimidin-4-one], the melting point lay within 231 to 234 °C.
`CCOc1ccc(-n2c(N)cc(=O)nc2Nc2ccccc2)cc1` [Example 10, 6-amino-1-(4-ethoxyphenyl)-2-phenylamino-1H-pyrimidin-4-one] had a melting point of 114 to 118 °C. In data set [4] (Conc. 1 μM), the inhibition at 1 µM came out at 33.3%.
With `Cc1ccc(Nc2nc(=O)cc(N)n2-c2ccccc2)cc1` [Example 5, 6-amino-2-(4methyl-phenylamino)-1-phenyl-1H-pyrimidin-4-one], the melting point lay within 207 to 210 °C.
Still for that read-out and setting: as for `Nc1cc(=O)nc(Nc2ccc(F)cc2)n1-c1ccccc1` [Example 7, 6-amino-2-(4-fluoro-phenylamino)-1-phenyl-1H-pyrimidin-4-one], the figure is 225 to 227 °C.
`CCOc1ccc(Nc2nc(=O)cc(N)n2-c2ccccc2)cc1` [Example 3, 6-amino-2-(4-ethoxy-phenylamino)-1-phenyl-1H-pyrimidin-4-one] registered a melting point of 111 to 113 °C. In data set [2] (Conc. 1 μM), the inhibition at 1 µM came out at 58.3%. For the same compound, in data set [1], testing at 1 µM gave an inhibition of 82.3%.
In turn, `Nc1cc(=O)nc(Nc2ccccc2)n1-c1ccc(Cl)cc1` [Example 11, 6-amino-1-(4-chlorophenyl)-2-phenylamino-1H-pyrimidin-4-one] registered a melting point of 216 to 222 °C. In data set [1], the inhibition at 1 µM came out at 59.5%.
Regarding `COc1ccc(-n2c(N)cc(=O)nc2Nc2ccccc2)cc1` [Example 9, 6-amino-1-(4-methoxyphenyl)-2-phenylamino-1H-pyrimidin-4-one], the melting point fell in the range of 180 to 190 °C. This compound registered an inhibition at 10 µM in data set [2] of 45.2%. Besides, testing at 1 µM in data set [1] gave an inhibition of 75.4%.
